Assay results as given in ChEMBL document CHEMBL1155344, “Synthesis of some new 1,2,4-triazoles starting from isonicotinic acid hydrazide and evaluation of their antimicrobial activities” (2009).
Activity calls are given as the source filed them. No cut-off for these calls is given here.

Columns and labels:
Escherichia coli [1] = experiment: Antimicrobial activity against Escherichia coli ATCC 25922 after 18 hrs by well diffusion method; assay type: functional
Enterococcus faecalis [2] = experiment: Antimicrobial activity against Enterococcus faecalis ATCC 29212 after 18 hrs by well diffusion method; assay type: functional
Candida albicans [3] = experiment: Antimicrobial activity against Candida albicans ATCC 60193 after 18 hrs by well diffusion method; assay type: functional
[4] = tested on: Yersinia pseudotuberculosis; experiment: Antimicrobial activity against Yersinia pseudotuberculosis ATCC 911after 18 hrs by well diffusion method; assay type: functional
Candida tropicalis [5] = experiment: Antimicrobial activity against Candida tropicalis ATCC 13803 after 18 hrs by well diffusion method; assay type: functional
Pseudomonas aeruginosa [6] = experiment: Antimicrobial activity against Pseudomonas aeruginosa ATCC 27853 after 18 hrs by well diffusion method; assay type: functional
Staphylococcus aureus [7] = experiment: Antimicrobial activity against Staphylococcus aureus ATCC 25923 after 18 hrs by well diffusion method; assay type: functional
Bacillus cereus [8] = experiment: Antimicrobial activity against Bacillus cereus 702 Roma after 18 hrs by well diffusion method; assay type: functional
Bacillus cereus [9] = experiment: Antimicrobial activity against Bacillus cereus 702 Roma at 10 ug after 18 hrs by well diffusion method; assay type: functional; conditions: read-out: IZ
[10] = tested on: Yersinia pseudotuberculosis; experiment: Antimicrobial activity against Yersinia pseudotuberculosis ATCC 911 at 10 ug after 18 hrs by well diffusion method; assay type: functional; conditions: ATCC 911, 18 h, read-out: IZ
Escherichia coli [11] = experiment: Antimicrobial activity against Escherichia coli ATCC 25922 at 10 ug after 18 hrs by well diffusion method; assay type: functional; conditions: ATCC 25922, 18 h, read-out: IZ
Candida tropicalis [12] = experiment: Antimicrobial activity against Candida tropicalis ATCC 13803 at 10 ug after 18 hrs by well diffusion method; assay type: functional, organism-based
Pseudomonas aeruginosa [13] = experiment: Antimicrobial activity against Pseudomonas aeruginosa ATCC 27853 at 10 ug after 18 hrs by well diffusion method; assay type: functional; conditions: ATCC 27853, 18 h, read-out: IZ
Candida albicans [14] = experiment: Antimicrobial activity against Candida albicans ATCC 60193 at 10 ug after 18 hrs by well diffusion method; assay type: functional, organism-based
Staphylococcus aureus [15] = experiment: Antimicrobial activity against Staphylococcus aureus ATCC 25923 at 10 ug after 18 hrs by well diffusion method; assay type: functional; conditions: ATCC 25923, 18 h, read-out: IZ
Enterococcus faecalis [16] = experiment: Antimicrobial activity against Enterococcus faecalis ATCC 29212 at 10 ug after 18 hrs by well diffusion method; assay type: functional; conditions: ATCC 29212, 18 h, read-out: IZ
Candida tropicalis [17] = experiment: Antimicrobial activity against Candida tropicalis ATCC 13803 at 5 ug after 18 hrs by well diffusion method; assay type: functional; conditions: ATCC 13803, 18 h, read-out: IZ
Candida albicans [18] = experiment: Antimicrobial activity against Candida albicans ATCC 60193 at 5 ug after 18 hrs by well diffusion method; assay type: functional; conditions: ATCC 60193, 18 h, read-out: IZ
[19] = tested on: Yersinia pseudotuberculosis; experiment: Antimicrobial activity against Yersinia pseudotuberculosis ATCC 911 at 5 ug after 18 hrs by well diffusion method; assay type: functional, organism-based
Bacillus cereus [20] = experiment: Antimicrobial activity against Bacillus cereus 702 Roma at 5 ug after 18 hrs by well diffusion method; assay type: functional, organism-based
Enterococcus faecalis [21] = experiment: Antimicrobial activity against Enterococcus faecalis ATCC 29212 at 5 ug after 18 hrs by well diffusion method; assay type: functional, organism-based
Escherichia coli [22] = experiment: Antimicrobial activity against Escherichia coli ATCC 25922 at 5 ug after 18 hrs by well diffusion method; assay type: functional, organism-based
Pseudomonas aeruginosa [23] = experiment: Antimicrobial activity against Pseudomonas aeruginosa ATCC 27853 at 5 ug after 18 hrs by well diffusion method; assay type: functional, organism-based
Staphylococcus aureus [24] = experiment: Antimicrobial activity against Staphylococcus aureus ATCC 25923 at 5 ug after 18 hrs by well diffusion method; assay type: functional, organism-based

CN1CCN(Cn2nc(-c3ccncc3)oc2=S)CC1
inhibition zone (IZ) (Escherichia coli [1]): 23 mm | inhibition zone (IZ) (Enterococcus faecalis [2]): 17 mm | inhibition zone (IZ) (Candida albicans [3]): inactive | inhibition zone (IZ) [4]: 15 mm | inhibition zone (IZ) (Candida tropicalis [5]): inactive | inhibition zone (IZ) (Pseudomonas aeruginosa [6]): 28 mm | inhibition zone (IZ) (Staphylococcus aureus [7]): 17 mm | inhibition zone (IZ) (Bacillus cereus [8]): 17 mm

Nn1c(S)nnc1-c1ccncc1
inhibition zone (IZ) (Escherichia coli [1]): 34 mm | inhibition zone (IZ) (Enterococcus faecalis [2]): 24 mm | inhibition zone (IZ) (Candida albicans [3]): inactive | inhibition zone (IZ) [4]: 30 mm | inhibition zone (IZ) (Candida tropicalis [5]): inactive | inhibition zone (IZ) (Pseudomonas aeruginosa [6]): 42 mm | inhibition zone (IZ) (Staphylococcus aureus [7]): 34 mm | inhibition zone (IZ) (Bacillus cereus [8]): 20 mm

CN1CCN(Cn2nc(-c3ccncc3)n(N)c2=S)CC1
inhibition zone (IZ) (Escherichia coli [1]): 30 mm | inhibition zone (IZ) (Enterococcus faecalis [2]): 25 mm | inhibition zone (IZ) (Candida albicans [3]): inactive | inhibition zone (IZ) [4]: 24 mm | inhibition zone (IZ) (Candida tropicalis [5]): inactive | inhibition zone (IZ) (Pseudomonas aeruginosa [6]): 35 mm | inhibition zone (IZ) (Staphylococcus aureus [7]): 28 mm | inhibition zone (IZ) (Bacillus cereus [8]): 22 mm

S=c1oc(-c2ccncc2)nn1CNCCN1CCOCC1
inhibition zone (IZ) (Escherichia coli [1]): 13 mm | inhibition zone (IZ) (Enterococcus faecalis [2]): 15 mm | inhibition zone (IZ) (Candida albicans [3]): inactive | inhibition zone (IZ) [4]: 13 mm | inhibition zone (IZ) (Candida tropicalis [5]): inactive | inhibition zone (IZ) (Pseudomonas aeruginosa [6]): 13 mm | inhibition zone (IZ) (Staphylococcus aureus [7]): 14 mm | inhibition zone (IZ) (Bacillus cereus [8]): 14 mm

CCSc1nnc(-c2ccncc2)o1
inhibition zone (IZ) (Escherichia coli [1]): 30 mm | inhibition zone (IZ) (Enterococcus faecalis [2]): 25 mm | inhibition zone (IZ) (Candida albicans [3]): 7 mm | inhibition zone (IZ) [4]: 22 mm | inhibition zone (IZ) (Candida tropicalis [5]): 7 mm | inhibition zone (IZ) (Pseudomonas aeruginosa [6]): 25 mm | inhibition zone (IZ) (Staphylococcus aureus [7]): 25 mm | inhibition zone (IZ) (Bacillus cereus [8]): 18 mm

S=c1[nH]nc(-c2ccncc2)o1
inhibition zone (IZ) (Escherichia coli [1]): inactive | inhibition zone (IZ) (Enterococcus faecalis [2]): inactive | inhibition zone (IZ) (Candida albicans [3]): 25 mm | inhibition zone (IZ) [4]: inactive | inhibition zone (IZ) (Candida tropicalis [5]): 30 mm | inhibition zone (IZ) (Pseudomonas aeruginosa [6]): inactive | inhibition zone (IZ) (Staphylococcus aureus [7]): 10 mm | inhibition zone (IZ) (Bacillus cereus [8]): inactive

CC1(C)S[C@@H]2[C@H](NC(=O)[C@H](N)c3ccccc3)C(=O)N2[C@H]1C(=O)O [AMPICILLIN]
zone of inhibition at 10 µg/disc (Bacillus cereus [9]): 15 mm | zone of inhibition at 10 µg/disc [10]: 18 mm | zone of inhibition at 10 µg/disc (Escherichia coli [11]): 10 mm | inhibition zone (IZ) (Candida tropicalis [12]): inactive | zone of inhibition at 10 µg/disc (Pseudomonas aeruginosa [13]): 18 mm | inhibition zone (IZ) (Candida albicans [14]): inactive | zone of inhibition at 10 µg/disc (Staphylococcus aureus [15]): 35 mm | zone of inhibition at 10 µg/disc (Enterococcus faecalis [16]): 10 mm

OC(Cn1cncn1)(Cn1cncn1)c1ccc(F)cc1F [FLUCONAZOLE]
zone of inhibition at 5 µg/disc (Candida tropicalis [17]): 25 mm | zone of inhibition at 5 µg/disc (Candida albicans [18]): 25 mm | inhibition zone (IZ) [19]: inactive | inhibition zone (IZ) (Bacillus cereus [20]): inactive | inhibition zone (IZ) (Enterococcus faecalis [21]): inactive | inhibition zone (IZ) (Escherichia coli [22]): inactive | inhibition zone (IZ) (Pseudomonas aeruginosa [23]): inactive | inhibition zone (IZ) (Staphylococcus aureus [24]): inactive

CCSc1nnc(-c2ccncc2)n1N
inhibition zone (IZ) (Escherichia coli [1]): 30 mm | inhibition zone (IZ) (Enterococcus faecalis [2]): 25 mm | inhibition zone (IZ) (Candida albicans [3]): 8 mm | inhibition zone (IZ) (Candida tropicalis [5]): 8 mm | inhibition zone (IZ) (Pseudomonas aeruginosa [6]): 25 mm | inhibition zone (IZ) (Staphylococcus aureus [7]): 25 mm | inhibition zone (IZ) (Bacillus cereus [8]): 20 mm

Nn1c(-c2ccncc2)nn(CNCCN2CCOCC2)c1=S
inhibition zone (IZ) (Escherichia coli [1]): inactive | inhibition zone (IZ) (Enterococcus faecalis [2]): inactive | inhibition zone (IZ) (Candida albicans [3]): inactive | inhibition zone (IZ) [4]: inactive | inhibition zone (IZ) (Candida tropicalis [5]): inactive | inhibition zone (IZ) (Pseudomonas aeruginosa [6]): inactive | inhibition zone (IZ) (Staphylococcus aureus [7]): inactive | inhibition zone (IZ) (Bacillus cereus [8]): inactive

S=c1[nH]nc(-c2ccncc2)n1/N=C/c1c[nH]c2ccccc12
inhibition zone (IZ) (Escherichia coli [1]): inactive | inhibition zone (IZ) (Enterococcus faecalis [2]): inactive | inhibition zone (IZ) (Candida albicans [3]): inactive | inhibition zone (IZ) [4]: inactive | inhibition zone (IZ) (Candida tropicalis [5]): inactive | inhibition zone (IZ) (Pseudomonas aeruginosa [6]): inactive | inhibition zone (IZ) (Staphylococcus aureus [7]): inactive | inhibition zone (IZ) (Bacillus cereus [8]): inactive

Nn1c(-c2ccncc2)nn(CN2CCOCC2)c1=S
inhibition zone (IZ) (Escherichia coli [1]): 20 mm | inhibition zone (IZ) (Enterococcus faecalis [2]): inactive | inhibition zone (IZ) (Candida albicans [3]): inactive | inhibition zone (IZ) [4]: 13 mm | inhibition zone (IZ) (Candida tropicalis [5]): inactive | inhibition zone (IZ) (Pseudomonas aeruginosa [6]): inactive | inhibition zone (IZ) (Staphylococcus aureus [7]): inactive | inhibition zone (IZ) (Bacillus cereus [8]): inactive

Fc1ccc(/C=N/n2c(-c3ccncc3)n[nH]c2=S)cc1
inhibition zone (IZ) (Escherichia coli [1]): inactive | inhibition zone (IZ) (Enterococcus faecalis [2]): inactive | inhibition zone (IZ) (Candida albicans [3]): 8 mm | inhibition zone (IZ) [4]: inactive | inhibition zone (IZ) (Candida tropicalis [5]): 8 mm | inhibition zone (IZ) (Pseudomonas aeruginosa [6]): inactive | inhibition zone (IZ) (Staphylococcus aureus [7]): inactive | inhibition zone (IZ) (Bacillus cereus [8]): 7 mm

CN1CCN(Cn2nc(-c3ccncc3)n(/N=C/c3ccc(F)cc3)c2=S)CC1
inhibition zone (IZ) (Escherichia coli [1]): inactive | inhibition zone (IZ) (Enterococcus faecalis [2]): inactive | inhibition zone (IZ) (Candida albicans [3]): inactive | inhibition zone (IZ) [4]: inactive | inhibition zone (IZ) (Candida tropicalis [5]): inactive | inhibition zone (IZ) (Pseudomonas aeruginosa [6]): inactive | inhibition zone (IZ) (Staphylococcus aureus [7]): inactive | inhibition zone (IZ) (Bacillus cereus [8]): inactive
